Measured values from patent US12312332B2 (Merck Sharp & Dohme LLC., priority 2019, dated 2025).

Target: T1, human OX2R (Homo sapiens, UniProt O43614)
T1 construct: expressed in transfected cells; host or cells: Chinese hamster ovary (CHO) cells, kept under G418 selection
T1 sequence (O43614 1-444): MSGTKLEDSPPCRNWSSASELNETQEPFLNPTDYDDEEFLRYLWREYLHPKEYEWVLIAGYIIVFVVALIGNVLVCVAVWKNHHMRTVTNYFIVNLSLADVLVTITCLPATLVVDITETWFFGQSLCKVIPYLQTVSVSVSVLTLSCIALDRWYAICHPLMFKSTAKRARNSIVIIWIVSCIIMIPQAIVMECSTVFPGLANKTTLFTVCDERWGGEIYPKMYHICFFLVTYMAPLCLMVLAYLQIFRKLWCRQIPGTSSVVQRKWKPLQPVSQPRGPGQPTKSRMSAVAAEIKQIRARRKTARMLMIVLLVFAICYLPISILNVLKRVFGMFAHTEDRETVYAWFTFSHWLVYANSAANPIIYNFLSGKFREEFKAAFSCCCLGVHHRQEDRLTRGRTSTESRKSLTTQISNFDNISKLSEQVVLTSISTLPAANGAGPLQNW
Test: IPOne (IP-One) orexin receptor agonist assay in CHO cells expressing human OX2R
Format: cell-based
Details: for EC50: CHO cells expressing human OX2R, IP-One detection, 2 hours incubation, four parameter logistic fit, read-out: OX2R Potency, EC50; for % max agonist effect (Emax): human OX2R, percentage of sample raw value/mean max effect (reference compound at 1 uM with 100% activity)

Row | SMILES | EC50 | % max agonist effect (Emax)
1 | Cc1cnc(N2CC[C@H](NS(C)(=O)=O)[C@@H]2CO[C@H]2CC[C@@H](c3ccccc3)CC2)cn1 [Example 65, N-((2R,3S)-1-(5-methylpyrazin-2-yl)-2-((((CIS)-4-phenylcyclohexyl)oxy)methyl)pyrrolidin-3-yl)methanesulfonamide] | 123 nM | 100.9%
2 | CS(=O)(=O)N[C@H]1CCN(c2cnc(C3CC3)cn2)[C@H]1CO[C@H]1CC[C@@H](c2ccccc2)CC1 [Example 66, N-((2R,3S)-1-(5-cyclopropylpyrazin-2-yl)-2-((((CIS)-4-phenylcyclohexyl)oxy)methyl)pyrrolidin-3-yl)methanesulfonamide] | 178 nM | 99.2%
3 | Cc1ccnc(N2CC[C@H](NS(C)(=O)=O)[C@@H]2CO[C@H]2CC[C@@H](c3ccccc3)CC2)n1 [Example 67, N-((2R,3S)-1-(4-methylpyrimidin-2-yl)-2-((((CIS)-4-phenylcyclohexyl)oxy)methyl)pyrrolidin-3-yl)methanesulfonamide] | 2180 nM | 92.6%
4 | CS(=O)(=O)N[C@H]1CCN(c2ccc(O)cn2)[C@H]1CO[C@H]1CC[C@@H](c2ccccc2)CC1 [Example 68, N-((2R,3S)-1-(5-hydroxypyridin-2-yl)-2-((((CIS)-4-phenylcyclohexyl)oxy)methyl)pyrrolidin-3-yl)methanesulfonamide] | 173 nM | 99.1%
5 | CS(=O)(=O)N[C@H]1CCN(c2csc(C3CC3)n2)[C@H]1CO[C@H]1CC[C@@H](c2ccccc2)CC1 [Example 69, N-((2R,3S)-1-(2-cyclopropylthiazol-4-yl)-2-((((CIS)-4-phenylcyclohexyl)oxy)methyl)pyrrolidin-3-yl)methanesulfonamide] | 271 nM | 99.4%
6 | CS(=O)(=O)N[C@H]1CCN(c2ccncc2C(F)(F)F)[C@H]1CO[C@H]1CC[C@@H](c2ccccc2)CC1 [Example 70, N-((2R,3S)-2-((((CIS)-4-phenylcyclohexyl)oxy)methyl)-1-(3-(trifluoromethyl)pyridin-4-yl)pyrrolidin-3-yl)methanesulfonamide] | 1670 nM | 96.0%
7 | CS(=O)(=O)N[C@H]1CCN(c2ccc(CO)nc2)[C@H]1CO[C@H]1CC[C@@H](c2ccccc2)CC1 [Example 71, N-((2R,3S)-1-(6-(hydroxymethyl)pyridin-3-yl)-2-((((CIS)-4-phenylcyclohexyl)oxy)methyl)pyrrolidin-3-yl)methanesulfonamide] | 23.8 nM | 101.1%
8 | CS(=O)(=O)N[C@H]1CCN(c2nccc(O)c2F)[C@H]1CO[C@H]1CC[C@@H](c2ccccc2)CC1 [Example 72, N-((2R,3S)-1-(3-fluoro-4-hydroxypyridin-2-yl)-2-((((CIS)-4-phenylcyclohexyl)oxy)methyl)pyrrolidin-3-yl)methanesulfonamide] | 1.2 nM | 99.9%
9 | COc1ccnc(N2CC[C@H](NS(C)(=O)=O)[C@@H]2CO[C@H]2CC[C@@H](c3ccccc3)CC2)c1 [Example 73, N-((2R,3S)-1-(4-methoxypyridin-2-yl)-2-((((CIS)-4-phenylcyclohexyl)oxy)methyl)pyrrolidin-3-yl)methanesulfonamide] | 105 nM | 99.7%
10 | CN(C)c1ccnc(N2CC[C@H](NS(C)(=O)=O)[C@@H]2CO[C@H]2CC[C@@H](c3ccccc3)CC2)c1 [Example 74, N-((2R,3S)-1-(4-(dimethylamino)pyridin-2-yl)-2-((((CIS)-4-phenylcyclohexyl)oxy)methyl)pyrrolidin-3 - yl)methanesulfonamide] | 662 nM | 97.4%
11 | CS(=O)(=O)N[C@H]1CCN(c2cc(O)ccn2)[C@H]1CO[C@H]1CC[C@@H](c2ccccc2)CC1 [Example 75, N-((2R,3S)-1-(4-hydroxypyridin-2-yl)-2-((((CIS)-4-phenylcyclohexyl)oxy)methyl)pyrrolidin-3-yl)methanesulfonamide] | 0.8 nM | 100.4%
12 | C[C@@H]1C[C@H](NS(C)(=O)=O)[C@H](CO[C@H]2CC[C@@H](c3ccccc3)CC2)N1c1nnnn1C [Example 80, N-((2R,3S,5R)-5-Methyl-1-(1-methyl-1H-tetrazol-5-yl)-2-((((CIS)-4-phenylcyclohexyl)oxy)-methyl)pyrrolidin-3-yl)methanesulfonamide] | 1.8 nM | 97.9%
13 | Cc1ccncc1N1CC[C@H](NS(C)(=O)=O)[C@@H]1CO[C@H]1CC[C@@H](c2ccccc2)CC1 [Example 81, N-((2R,3S)-1-(4-Methylpyridin-3-yl)-2-((((CIS)-4-phenylcyclohexyl)oxy)methyl)pyrrolidin-3-yl)methanesulfonamide] | 24.5 nM | 100.9%
14 | Cc1ncccc1N1CC[C@H](NS(C)(=O)=O)[C@@H]1CO[C@H]1CC[C@@H](c2ccccc2)CC1 [Example 82, N-((2R,3S)-1-(2-methylpyridin-3-yl)-2-((((CIS)-4-phenylcyclohexyl)oxy)methyl)pyrrolidin-3-yl)methanesulfonamide] | 3360 nM | 92.4%
15 | Cc1ncsc1N1CC[C@H](NS(C)(=O)=O)[C@@H]1CO[C@H]1CC[C@@H](c2ccccc2)CC1 [Example 83, N-((2R,3S)-1-(4-methylthiazol-5-yl)-2-((((CIS)-4-phenylcyclohexyl)oxy)methyl)pyrrolidin-3-yl)methanesulfonamide] | 1070 nM | 94.8%
16 | Cc1scnc1N1CC[C@H](NS(C)(=O)=O)[C@@H]1CO[C@H]1CC[C@@H](c2ccccc2)CC1 [Example 84, N-((2R,3S)-1-(5-methylthiazol-4-yl)-2-((((CIS)-4-phenylcyclohexyl)oxy)methyl)pyrrolidin-3-yl)methanesulfonamide] | 109 nM | 100.7%
17 | COC[C@@H]1C[C@H](NS(C)(=O)=O)[C@H](CO[C@H]2CC[C@@H](c3cccc(F)c3)CC2)N1c1cc(O)c(F)cn1 [Example 85, N-((2R,3S,5S)-1-(5-fluoro-4-hydroxypyridin-2-yl)-2-((((CIS)-4-(3-fluorophenyl)cyclohexyl)-oxy)methyl)-5-(methoxymethyl)pyrrolidin-3-yl)methanesulfonamide] | 0.54 nM | 101.1%
18 | Cn1ccc(=O)c(F)c1N1CC[C@H](NS(C)(=O)=O)[C@@H]1CO[C@H]1CC[C@@H](c2ccccc2)CC1 [Example 86, N-((2R,3S)-1-(3-fluoro-1-methyl-4-oxo-1,4-dihydropyridin-2-yl)-2-((((CIS)-4-phenylcyclohexyl)oxy)methyl)pyrrolidin-3-yl)methanesulfonamide] | 148 nM | 99.9%
19 | Cn1ccc(=O)cc1N1CC[C@H](NS(C)(=O)=O)[C@@H]1CO[C@H]1CC[C@@H](c2ccccc2)CC1 [Example 87, N-((2R,3S)-1-(1-methyl-4-oxo-1,4-dihydropyridin-2-yl)-2-((((CIS)-4-phenylcyclohexyl)oxy)methyl)pyrrolidin-3-yl)methanesulfonamide] | 52.4 nM | 102.3%
